According to US11912705B2, “Cathinone derivatives, pharmaceutical formulations, and methods” (The Corporation of Mercer University, priority 2020, dated 2024):

Legend:
[1] = biological target: T1, Norepinephrine transporter (h) (Homo sapiens, UniProt P23975); experiment: Norepinephrine transporter (h) (antagonist radioligand) competition binding; settings: for nH: Norepinephrine transporter (h) (antagonist radioligand)
T1 construct: Eurofins/Cerep (contract testing)
Protocol: For antagonist assays, Kb affinity values were calculated from IC50 values using GraphPad Prism 9 (San Diego, Calif. USA).

[2] = biological target: T2, 5-HT transporter (h) (Homo sapiens, UniProt P31645); experiment: Serotonin transporter (antagonist radioligand) competition binding; settings: for Affinity (Ki) SERT: Eurofins/Cerep, N.B. denotes no binding at 100 μM
T2 construct: Eurofins/Cerep (contract testing)
T2 sequence (P31645 whole entry): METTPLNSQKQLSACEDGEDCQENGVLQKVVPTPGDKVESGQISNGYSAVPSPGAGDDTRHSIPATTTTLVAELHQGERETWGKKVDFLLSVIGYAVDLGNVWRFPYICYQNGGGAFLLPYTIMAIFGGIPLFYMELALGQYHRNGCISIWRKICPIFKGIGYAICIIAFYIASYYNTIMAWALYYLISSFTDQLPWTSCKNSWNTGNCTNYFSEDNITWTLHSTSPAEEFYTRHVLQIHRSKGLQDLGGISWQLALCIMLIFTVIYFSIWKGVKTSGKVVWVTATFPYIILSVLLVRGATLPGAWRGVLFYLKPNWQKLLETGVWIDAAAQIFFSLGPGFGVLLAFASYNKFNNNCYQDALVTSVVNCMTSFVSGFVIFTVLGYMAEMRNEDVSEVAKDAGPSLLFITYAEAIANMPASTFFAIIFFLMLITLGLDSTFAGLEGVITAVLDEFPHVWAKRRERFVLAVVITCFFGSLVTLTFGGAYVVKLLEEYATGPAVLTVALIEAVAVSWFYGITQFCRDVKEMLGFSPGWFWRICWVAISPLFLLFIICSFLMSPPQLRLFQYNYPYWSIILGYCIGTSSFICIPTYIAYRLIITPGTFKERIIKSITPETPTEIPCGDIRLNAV
Protocol: (§1) Compounds (1) and (2) were tested at several concentrations for IC50 or EC50 determination at target receptors. […] For antagonist assays, Kb affinity values were calculated from IC50 values using GraphPad Prism 9 (San Diego, Calif. USA).

[3] = biological target: T3, M2 (h) (Homo sapiens, UniProt P08172); experiment: M2 (h) antagonist effect, cAMP HTRF cellular functional assay; format: cell-based
T3 construct: expressed in transfected cells; host or cells: CHO cells (human recombinant)
T3 sequence (P08172 1-466): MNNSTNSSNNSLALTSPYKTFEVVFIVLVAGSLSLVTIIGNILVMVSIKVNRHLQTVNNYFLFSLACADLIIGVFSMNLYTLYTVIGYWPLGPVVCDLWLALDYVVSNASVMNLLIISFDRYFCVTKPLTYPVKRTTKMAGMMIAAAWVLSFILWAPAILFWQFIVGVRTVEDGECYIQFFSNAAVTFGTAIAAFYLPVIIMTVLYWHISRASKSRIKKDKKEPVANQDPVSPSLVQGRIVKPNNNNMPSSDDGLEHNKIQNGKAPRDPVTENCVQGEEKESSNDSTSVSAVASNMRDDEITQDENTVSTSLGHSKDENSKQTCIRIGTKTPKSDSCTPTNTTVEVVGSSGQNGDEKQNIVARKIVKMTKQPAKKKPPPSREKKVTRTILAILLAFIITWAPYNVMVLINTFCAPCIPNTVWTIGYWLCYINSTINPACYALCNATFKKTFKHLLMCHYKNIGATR
Protocol: as §1

[4] = test system: mice on the FVB background; experiment: Open field locomotor activity in mice; format: in vivo; settings: 2.8 mg/kg, s.c., 20-min open field
Protocol: (§2) Since functional inhibition of neurotransmitter transporters, particularly DAT, is classically known to cause psychomotor stimulation, the ability of Compound (1) to induce this effect in mice was assessed, directly comparing results to α-PHP, a pyrrolidine-substituted analog of Compound (1). Adult male and female mice on the FVB background were injected subcutaneously and then immediately placed inside of an open field chamber, where their activity was recorded automatically for 20-min by an overhead camera connected to a PC running EthoVision XT software. […] Data are means (±SEM).

[5] = test system: mice on the FVB background; experiment: Defecation (fecal pellets) / gastrointestinal motility in mice; format: in vivo; settings: 2.8 mg/kg, s.c.
Protocol: as §2
Consistent with pre-synaptic M2R antagonist activity, also observed was an increase in defecation caused by Compound (1) (FIG. 4). […] Regarding FIG. 4, Compound (1) (2.8 mg/kg, s.c.) increased gastrointestinal motility compared to vehicle and α-PHP (2.8 mg/kg, s.c.) treated mice. Scatter dot plots with means (±SEMs).

[6] = biological target: T4, M2Rs (Homo sapiens, UniProt P08172); experiment: M2R β-arrestin recruitment; format: cell-based
T4 sequence (P08172 1-466): T3 sequence (P08172 1-466)
Description: Data are shown as normalized means (±SEM) of two, independent determinations, with oxotremorine tested at each concentration in duplicate and α-PHP tested in quadruplicate. [*Basal signaling is defined as the normalized RLU emitted by untreated cells.]

[7] = biological target: T5, human M1Rs (Homo sapiens, UniProt P11229); experiment: M1R phosphoinositide hydrolysis (IP-One HTRF); format: cell-based
T5 construct: host or cells: HEK293 (CRL-1573, ATCC), transient
T5 sequence (P11229 1-460): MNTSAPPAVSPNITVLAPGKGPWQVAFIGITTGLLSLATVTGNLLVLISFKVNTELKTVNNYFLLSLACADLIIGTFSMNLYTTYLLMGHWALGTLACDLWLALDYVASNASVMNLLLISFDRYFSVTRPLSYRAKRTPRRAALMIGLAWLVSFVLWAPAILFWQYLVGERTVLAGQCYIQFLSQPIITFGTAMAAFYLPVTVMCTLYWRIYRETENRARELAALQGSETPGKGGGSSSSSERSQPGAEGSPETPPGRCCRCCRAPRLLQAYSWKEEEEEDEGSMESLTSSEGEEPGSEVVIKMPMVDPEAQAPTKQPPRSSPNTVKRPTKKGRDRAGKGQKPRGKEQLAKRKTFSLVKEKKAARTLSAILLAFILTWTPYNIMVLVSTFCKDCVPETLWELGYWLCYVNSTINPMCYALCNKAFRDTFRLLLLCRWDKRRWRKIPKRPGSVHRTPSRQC

[8] = biological target: T6, human DAT (Homo sapiens, UniProt Q01959); settings: from Eshleman et al. 2017, cited from earlier work
T6 sequence (Q01959 whole entry): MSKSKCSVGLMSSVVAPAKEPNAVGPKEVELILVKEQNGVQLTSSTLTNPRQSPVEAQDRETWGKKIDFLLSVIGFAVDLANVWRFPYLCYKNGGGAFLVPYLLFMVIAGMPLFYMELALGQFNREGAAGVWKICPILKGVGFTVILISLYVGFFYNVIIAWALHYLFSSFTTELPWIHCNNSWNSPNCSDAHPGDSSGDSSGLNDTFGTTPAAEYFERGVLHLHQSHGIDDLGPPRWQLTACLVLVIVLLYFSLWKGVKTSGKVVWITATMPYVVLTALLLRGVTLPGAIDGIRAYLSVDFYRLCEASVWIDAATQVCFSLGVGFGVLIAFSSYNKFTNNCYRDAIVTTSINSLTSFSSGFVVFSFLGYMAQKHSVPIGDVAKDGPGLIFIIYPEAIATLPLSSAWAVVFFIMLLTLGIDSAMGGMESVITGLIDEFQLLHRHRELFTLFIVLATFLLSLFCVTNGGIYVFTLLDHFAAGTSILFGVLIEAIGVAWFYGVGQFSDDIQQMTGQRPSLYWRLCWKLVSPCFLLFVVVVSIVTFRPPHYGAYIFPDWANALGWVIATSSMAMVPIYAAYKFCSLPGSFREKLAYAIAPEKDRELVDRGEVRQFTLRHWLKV

[9] = biological target: T7, human NET (Homo sapiens, UniProt P23975); settings: from Eshleman et al. 2017, cited from earlier work
T7 sequence (P23975 whole entry): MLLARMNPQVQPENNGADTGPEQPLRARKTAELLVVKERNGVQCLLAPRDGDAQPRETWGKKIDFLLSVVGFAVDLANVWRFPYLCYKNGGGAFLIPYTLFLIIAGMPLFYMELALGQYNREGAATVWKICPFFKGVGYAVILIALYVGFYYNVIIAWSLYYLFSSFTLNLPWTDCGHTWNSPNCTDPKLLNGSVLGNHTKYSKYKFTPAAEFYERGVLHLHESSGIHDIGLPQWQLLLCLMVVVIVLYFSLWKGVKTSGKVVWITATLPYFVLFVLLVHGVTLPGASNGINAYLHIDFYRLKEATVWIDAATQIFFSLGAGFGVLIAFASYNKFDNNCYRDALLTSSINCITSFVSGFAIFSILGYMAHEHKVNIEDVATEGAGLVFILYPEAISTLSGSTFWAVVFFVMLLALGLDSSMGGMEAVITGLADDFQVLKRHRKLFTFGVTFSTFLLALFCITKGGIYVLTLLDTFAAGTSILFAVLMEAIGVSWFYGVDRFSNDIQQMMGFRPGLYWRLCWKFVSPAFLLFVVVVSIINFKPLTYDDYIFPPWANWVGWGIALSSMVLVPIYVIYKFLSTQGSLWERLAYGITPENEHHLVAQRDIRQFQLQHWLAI

[10] = biological target: T8, human SERT (Homo sapiens, UniProt P31645); settings: read-out: Affinity (Ki) SERT; from Eshleman et al. 2017; cited from earlier work
T8 sequence (P31645 whole entry): as the sequence (P31645 whole entry) above

[11] = biological target: T6, human DAT; settings: read-out: Uptake Inhibition (IC50) DAT; from Eshleman et al. 2017; cited from earlier work
[12] = biological target: T7, human NET; settings: read-out: Uptake Inhibition (IC50) NET; from Eshleman et al. 2017; cited from earlier work
[13] = biological target: T8, human SERT; settings: read-out: Uptake Inhibition (IC50) SERT; from Eshleman et al. 2017; cited from earlier work

T1 sequence (P23975 whole entry): as the sequence (P23975 whole entry) above

Compound | IC50 [1] [µM] | Ki [1] [µM] | nH [1] | IC50 [2] [µM] | Affinity (Ki) SERT [2] | IC50 [3] [µM] | Kb [3] [µM] | locomotor activity [4] | number of fecal pellets (defecation, gastrointestinal motility) [5] | further results
CCCCC(C(=O)c1ccccc1)N1CCCCC1 (stereo not drawn) [Compound (1), 1-phenyl-2-(piperidin-1-yl)hexan-1-one] | 8.7 | 6.5 | 1.6 | > 100 | neither compound exhibiting demonstrable binding at SERT | 1.7 | 0.12 | nearly indistinguishable from vehicle-treated mice | significantly higher than both vehicle (p<0.0001) and α-PHP treated mice | Affinity (Ki) SERT ([2]; listed as Compound 1): N.B.
CCCCC(C(=O)c1ccccc1)N1CCCCCC1 (stereo not drawn) [Compound (2), 2-(azepan-1-yl)-1-phenylhexan-1-one] | 13 | 9.8 | 0.9 | > 100 | neither compound exhibiting demonstrable binding at SERT | 2 | 0.16 |  |  | Affinity (Ki) SERT ([2]; listed as Compound 2): N.B.
CCCCC(C(=O)c1ccccc1)N1CCCC1 (stereo not drawn) [α-PHP, 1-phenyl-2-(pyrrolidin-1-yl)hexan-1-one] |  |  |  |  |  |  |  | robustly increased locomotor activity compared to vehicle | no significant difference was observed between the vehicle and α-PHP groups | Kb [6]: 0.501 µM; Kb [7]: 1.38 µM; affinity at DAT, fold higher than α-PPP [8]: 81 fold; Ki ([8]; read-out: Affinity (Ki) DAT): 0.016 µM; affinity at NET, fold higher than α-PPP [9]: 6 fold; Ki ([9]; read-out: Affinity (Ki) NET): 0.3 µM; Ki [10]: 33 µM; IC50 [11]: 0.022 µM; IC50 [12]: 0.03 µM; IC50 [13]: 40 µM
